The record followed here is ChEMBL document CHEMBL1909046, “DrugMatrix in vitro pharmacology data”.

Data set [1] can be described thus: DRUGMATRIX: GABAA, Chloride Channel, TBOB radioligand binding (ligand: [3H] TBOB). It is filed as cell membranes, Rattus norvegicus, Wistar, Cerebral cortex, Membrane. Conditions: Not Active = under 50% inhibition at 10 µM.
Data set [2] in a line: DRUGMATRIX: Phosphodiesterase PDE3 enzyme inhibition (substrate: [3H]cAMP + cAMP). The format is tissue-based, Homo sapiens. Conditions: platelet; Not Active = under 50% inhibition at 10 µM.
A short description of data set [3]: DRUGMATRIX: Phosphodiesterase PDE4 enzyme inhibition (substrate: [3H]cAMP + cAMP). To be noted: u-937, Not Active = under 50% inhibition at 10 µM.
The target of data set [4] is Protein kinase C alpha type (Homo sapiens, UniProt P17252). It is filed as cell-based. To be noted: sf9.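 Further: inhibition of PKCalpha kinase activity measured in an enzyme assay with histone as the phosphorylation substrate; in other assays of this panel Not Active means under 50% inhibition at 10 µM.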
The target of data set [5] is Tyrosine-protein kinase Fyn (Homo sapiens, UniProt P06241). Kind of data set: biochemical. It is filed as cell-based, Insect cells.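 Further: enzymatic inhibition of Fyn kinase activity measured with Poly(Glu:Tyr) as the phosphorylation substrate; in other assays of this panel Not Active means under 50% inhibition at 10 µM.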
The target in data set [6] is Tyrosine-protein kinase Lck (Homo sapiens, UniProt P06239). Description: DRUGMATRIX: Protein Tyrosine Kinase, LCK enzyme inhibition (substrate: Poly(Glu:Tyr)). It is filed as cell-based, Insect cells. To be noted: Not Active = under 50% inhibition at 10 µM.
Data set [7] in a line: DRUGMATRIX: Purinergic P2X radioligand binding (ligand: [3H] alpha, beta-Methylene-ATP). To be noted: Not Active = under 50% inhibition at 10 µM. The format is cell membranes, Oryctolagus cuniculus, New Zealand albino, Urinary bladder, Membrane.
In another data set the target is Cytochrome P450 2E1 (Homo sapiens, UniProt P05181). To be noted: bti-tn-5b1-4. Further: in other assays of this panel Not Active means under 50% inhibition at 10 µM.

The IC50 is the point on the concentration scale where inhibition reaches its midpoint.

Cytochrome P450 2E1, sequence (P05181 whole entry): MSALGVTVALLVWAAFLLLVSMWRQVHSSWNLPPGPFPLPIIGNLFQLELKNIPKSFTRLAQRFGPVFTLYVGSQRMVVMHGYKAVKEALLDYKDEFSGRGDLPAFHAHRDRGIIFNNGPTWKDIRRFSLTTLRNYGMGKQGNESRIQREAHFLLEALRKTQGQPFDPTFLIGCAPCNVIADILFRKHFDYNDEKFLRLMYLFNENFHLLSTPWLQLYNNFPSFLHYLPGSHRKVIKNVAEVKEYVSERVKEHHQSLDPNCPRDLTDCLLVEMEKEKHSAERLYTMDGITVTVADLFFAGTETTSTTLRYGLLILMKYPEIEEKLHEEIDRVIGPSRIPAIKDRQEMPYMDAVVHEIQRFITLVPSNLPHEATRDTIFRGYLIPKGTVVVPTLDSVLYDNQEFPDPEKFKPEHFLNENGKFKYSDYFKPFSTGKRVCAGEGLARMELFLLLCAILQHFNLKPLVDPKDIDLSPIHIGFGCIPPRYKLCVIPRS
Tyrosine-protein kinase Fyn, sequence (P06241 whole entry): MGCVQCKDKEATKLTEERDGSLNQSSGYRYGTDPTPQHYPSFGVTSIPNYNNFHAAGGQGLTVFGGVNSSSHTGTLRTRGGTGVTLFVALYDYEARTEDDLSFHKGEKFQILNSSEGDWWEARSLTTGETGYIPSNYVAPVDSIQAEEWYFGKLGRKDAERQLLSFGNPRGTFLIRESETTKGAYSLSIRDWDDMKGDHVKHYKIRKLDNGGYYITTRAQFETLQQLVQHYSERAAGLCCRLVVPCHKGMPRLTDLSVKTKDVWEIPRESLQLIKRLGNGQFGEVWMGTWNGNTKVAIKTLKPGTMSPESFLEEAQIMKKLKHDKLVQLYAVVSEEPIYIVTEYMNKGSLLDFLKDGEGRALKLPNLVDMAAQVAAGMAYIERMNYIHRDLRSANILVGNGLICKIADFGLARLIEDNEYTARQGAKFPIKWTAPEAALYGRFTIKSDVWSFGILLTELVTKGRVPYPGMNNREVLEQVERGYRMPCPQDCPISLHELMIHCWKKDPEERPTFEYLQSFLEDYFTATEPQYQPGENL
Tyrosine-protein kinase Lck, sequence (P06239 whole entry): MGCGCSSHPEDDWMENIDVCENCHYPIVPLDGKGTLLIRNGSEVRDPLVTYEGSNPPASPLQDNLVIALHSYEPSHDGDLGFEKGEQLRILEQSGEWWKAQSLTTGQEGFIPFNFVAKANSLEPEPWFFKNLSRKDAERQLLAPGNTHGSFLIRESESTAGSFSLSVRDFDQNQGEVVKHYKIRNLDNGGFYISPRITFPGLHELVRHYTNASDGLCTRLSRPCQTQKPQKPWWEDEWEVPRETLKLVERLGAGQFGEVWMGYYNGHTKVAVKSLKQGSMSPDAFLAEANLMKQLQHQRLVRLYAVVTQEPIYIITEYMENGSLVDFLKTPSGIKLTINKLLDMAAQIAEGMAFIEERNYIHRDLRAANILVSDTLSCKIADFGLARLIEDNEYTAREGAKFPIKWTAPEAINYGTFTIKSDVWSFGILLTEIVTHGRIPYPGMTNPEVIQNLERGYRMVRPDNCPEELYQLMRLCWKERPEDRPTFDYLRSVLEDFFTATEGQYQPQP

For `CC(C)(C)NC(=O)[C@@H]1C[C@@H]2CCCC[C@@H]2CN1C[C@@H](O)[C@H](Cc1ccccc1)NC(=O)[C@H](CC(N)=O)NC(=O)c1ccc2ccccc2n1`, the IC50 entry in data set [1], in data set [2], in data set [3], in data set [4], in data set [5] (insect cells) and in data set [6] (insect cells) was “Not Active” in each case. Moreover, the IC50 result (in data set [7]; against Cytochrome P450 2E1) was “Not Active” throughout. The Ki entry (in data set [1]; in data set [2]; in data set [3]; in data set [7]; at Cytochrome P450 2E1) was “Not Active” each time.

Regarding `CC(=O)[C@@]1(O)CC[C@H]2[C@@H]3C[C@H](C)C4=CC(=O)CC[C@]4(C)[C@H]3CC[C@@]21C`, the IC50 result in data set [1], in data set [2], in data set [3], in data set [4], in data set [5] (insect cells) and in data set [6] (insect cells) was “Not Active” each time. The 50% inhibitory concentration (IC50) entry (in data set [7]; against Cytochrome P450 2E1) was “Not Active” each time. Also, the Ki entry (in data set [1]; in data set [2]; in data set [3]; in data set [7]; at Cytochrome P450 2E1) was “Not Active” throughout.

For the molecule `N[C@@H](Cc1ccc(N(CCCl)CCCl)cc1)C(=O)O`, the IC50 result in data set [1], in data set [2], in data set [3], in data set [4], in data set [5] (insect cells) and in data set [6] (insect cells) was “Not Active” throughout. The IC50 entry (in data set [7]; against Cytochrome P450 2E1) was “Not Active” each time. The Ki result (in data set [1]; in data set [2]; in data set [3]; in data set [7]; on Cytochrome P450 2E1) was “Not Active” each time.

As to `CCCCc1oc2ccccc2c1C(=O)c1cc(I)c(OCCN(CC)CC)c(I)c1` [AMIODARONE], the half-maximal inhibitory concentration (IC50) result in data set [4] is “Not Active”; in data set [5] (read-out: IC50) it was 817 nM; in data set [6] (insect cells) it was “Not Active”; at Cytochrome P450 2E1, “Not Active”. The Ki entry at Cytochrome P450 2E1 is recorded as “Not Active”.

In the case of `OCCN(CCO)c1nc(N2CCCCC2)c2nc(N(CCO)CCO)nc(N3CCCCC3)c2n1` [DIPYRIDAMOLE], the IC50 entry in data set [1] was “Not Active”; in data set [2] it was “Not Active”; in data set [3] (read-out: IC50), 1580 nM; in data set [4] it was “Not Active”; in data set [5] (insect cells), “Not Active”; in data set [6] (insect cells), “Not Active”. In addition, the half-inhibitory concentration (IC50) entry (in data set [7]; at Cytochrome P450 2E1) was “Not Active” each time. Also, the Ki result (in data set [1]; in data set [2]; in data set [7]; at Cytochrome P450 2E1) was “Not Active” throughout.

Regarding `Cc1oncc1C(=O)Nc1ccc(C(F)(F)F)cc1` [LEFLUNOMIDE], the IC50 result in data set [1], in data set [2], in data set [3], in data set [4], in data set [5] (insect cells) and in data set [6] (insect cells) was “Not Active” in each case. Besides, the IC50 entry (in data set [7]; on Cytochrome P450 2E1) was “Not Active” each time. The Ki result (in data set [1]; in data set [2]; in data set [3]; in data set [7]; on Cytochrome P450 2E1) was “Not Active” throughout.

As for `c1ccc([C@H]2CN3CCSC3=N2)cc1` [LEVAMISOLE], the IC50 entry in data set [1], in data set [2], in data set [3], in data set [4], in data set [5] (insect cells) and in data set [6] (insect cells) was “Not Active” throughout. The half-maximal inhibitory concentration (IC50) entry (in data set [7]; at Cytochrome P450 2E1) was “Not Active” throughout. Also, the Ki entry (in data set [1]; in data set [2]; in data set [3]; in data set [7]; on Cytochrome P450 2E1) was “Not Active” throughout.

As to `N[C@@H](Cc1ccc(O)c(O)c1)C(=O)O` [LEVODOPA], the IC50 result is “Not Active” in data set [1]; “Not Active” in data set [2]; “Not Active” in data set [3]; “Not Active” in data set [4]; 2150 nM in data set [5] (read-out: IC50); 3730 nM in data set [6] (read-out: IC50). The IC50 entry (in data set [7]; on Cytochrome P450 2E1) was “Not Active” throughout. Moreover, the Ki result (in data set [1]; in data set [2]; in data set [3]; in data set [7]; at Cytochrome P450 2E1) was “Not Active” throughout.

Take `N[C@@H](Cc1cc(I)c(Oc2ccc(O)c(I)c2)c(I)c1)C(=O)O` [LIOTHYRONINE]: the IC50 result (in data set [4]; in data set [5] (insect cells); in data set [6] (insect cells); against Cytochrome P450 2E1) was “Not Active” each time. Besides, on Cytochrome P450 2E1, the Ki entry is given as “Not Active”.

`O=NN(CCCl)C(=O)NC1CCCCC1` [LOMUSTINE]: the half-maximal inhibitory concentration (IC50) entry in data set [1], in data set [2], in data set [3], in data set [4], in data set [5] (insect cells) and in data set [6] (insect cells) was “Not Active” each time. Also, the IC50 result (in data set [7]; at Cytochrome P450 2E1) was “Not Active” each time. Moreover, the Ki entry (in data set [1]; in data set [2]; in data set [3]; in data set [7]; on Cytochrome P450 2E1) was “Not Active” throughout.

As to `CN1CCN(CCCN2c3ccccc3Sc3ccc(Cl)cc32)CC1` [PROCHLORPERAZINE], the concentration for half-maximal inhibition (IC50) result in data set [4] was “Not Active”; in data set [5] (read-out: IC50), 5680 nM; in data set [6] (insect cells) it was “Not Active”; against Cytochrome P450 2E1, “Not Active”. The Ki result at Cytochrome P450 2E1 is on record as “Not Active”.

Consider `Nc1nc2ccc(OC(F)(F)F)cc2s1` [RILUZOLE], for which the concentration for half-maximal inhibition (IC50) result in data set [1], in data set [2], in data set [3], in data set [4], in data set [5] (insect cells) and in data set [6] (insect cells) was “Not Active” in each case. For the same molecule, the IC50 entry in data set [7] was “Not Active”. The Ki result in data set [1], in data set [2], in data set [3] and in data set [7] was “Not Active” in each case.

Regarding `Cc1nc2n(c(=O)c1CCN1CCC(c3noc4cc(F)ccc34)CC1)CCCC2` [RISPERIDONE], the IC50 result (in data set [4]; in data set [5] (insect cells); in data set [6] (insect cells); on Cytochrome P450 2E1) was “Not Active” each time. For the same molecule, the Ki entry on Cytochrome P450 2E1 is given as “Not Active”.

As for `CC/C(=C(\c1ccccc1)c1ccc(OCCN(C)C)cc1)c1ccccc1` [TAMOXIFEN], the half-inhibitory concentration (IC50) result is “Not Active” in data set [4], 1200 nM in data set [5] (read-out: IC50), 8030 nM in data set [6] (read-out: IC50) and “Not Active” against Cytochrome P450 2E1. The Ki entry on Cytochrome P450 2E1 is on record as “Not Active”.

Turning to `N[C@@H]1[C@H]2CN(c3nc4c(cc3F)c(=O)c(C(=O)O)cn4-c3ccc(F)cc3F)C[C@@H]12` [TROVAFLOXACIN], the IC50 result in data set [1], in data set [2], in data set [3], in data set [4], in data set [5] (insect cells) and in data set [7] was “Not Active” each time. In addition, the 50% inhibitory concentration (IC50) result against Cytochrome P450 2E1 is listed as “Not Active”. Besides, the Ki result (in data set [1]; in data set [2]; in data set [3]; in data set [7]; at Cytochrome P450 2E1) was “Not Active” each time.
